Measurements: patent US9056875B2, “Substituted pyrazolo[3′,4′:4,5]thieno[2,3-C]pyridazin-3-amine analogs as positive allosteric modulators of the muscarinic acetylcholine receptor M4” (Vanderbilt University, priority 2012, dated 2015)
Values belong to the compound of their own block, whether it stands above or below them.

Tests used:
[1] = Alzheimer's disease patients; cited from earlier work
[2] = cited from earlier work
[3] = patients treated with AChE inhibitor; cited from earlier work
[4] = target: T1, mAChR rM4 (Rattus norvegicus, UniProt P08485); experiment: mAChR rM4 cell-based functional assay (calcium mobilization, potentiation of EC20 acetylcholine response)
T1 construct: expressed in transfected cells
T1 sequence (P08485 1-478): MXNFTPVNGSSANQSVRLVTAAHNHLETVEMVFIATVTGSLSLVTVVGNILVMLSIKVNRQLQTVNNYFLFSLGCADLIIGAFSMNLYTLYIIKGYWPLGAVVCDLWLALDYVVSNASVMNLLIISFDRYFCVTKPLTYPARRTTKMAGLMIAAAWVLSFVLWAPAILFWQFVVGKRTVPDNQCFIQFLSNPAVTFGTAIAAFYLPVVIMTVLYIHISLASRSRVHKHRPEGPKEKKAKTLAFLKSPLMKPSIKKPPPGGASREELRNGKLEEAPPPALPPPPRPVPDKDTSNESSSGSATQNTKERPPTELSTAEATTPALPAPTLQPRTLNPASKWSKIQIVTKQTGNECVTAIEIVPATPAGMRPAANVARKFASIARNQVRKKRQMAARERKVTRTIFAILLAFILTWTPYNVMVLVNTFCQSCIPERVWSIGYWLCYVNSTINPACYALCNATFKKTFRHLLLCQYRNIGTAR
Text: Chinese hamster ovary (CHO-K1) cells stably expressing rat (r)M1 were purchased from the American Type Culture Collection and cultured according to their indicated protocol. CHO cells stably expressing human (h)M2, hM3, and hM5 were described previously (Levey A I, et al., (1991) J Neurosci 11:3218-3226.); hM1 and hM4 cDNAs were purchased from Missouri S&T cDNA Resource; rM4 cDNA was provided by T. I. Bonner (National Institutes of Health, Bethesda, Md.). rM2 and rM3 were cloned from a rat brain cDNA library and sequence verified. hM1, rM2, rM3, hM4, and rM4 cDNAs were used to stably transfect CHO-K1 cells purchased from the American Type Culture Collection using Lipofectamine® 2000. To make stable rM2, hM2, rM3, hM4, and rM4 cell lines for use in calcium mobilization assays, these cells also were stably transfected with a chimeric G-protein (Gqi5) (provided by B. R. Conklin, University of California, San Francisco) using Lipofectamine® 2000. rM1, hM1, rM3, hM3, rM5, and hM5 cells were grown in Ham's F-12 medium containing 10% heat-inactivated fetal bovine serum (FBS), 20 mM HEPES, and 50 μg/mL G418 sulfate. rM2-Gqi5, hM2-Gqi5, and hM4-Gqi5 cells were grown in the same medium also containing 500 μg/mL hygromycin B. Stable rM4-Gqi5 cells were grown in DMEM containing 10% heat-inactivated FBS, 20 mM HEPES, 400 μg/mL G418 sulfate, and 500 μg/mL Hygromycin B.
For high throughput measurement of agonist-evoked increases in intracellular calcium, CHO-K1 cells stably expressing the target muscarinic receptor were plated in growth medium lacking G418 and hygromycin at 15,000 cells/20 μL/well in Greiner 384-well black-walled, tissue culture (TC)-treated, clear-bottom plates (VWR). Cells were incubated overnight at 37° C. and 5% CO2. The next day, cells were washed using an ELX 405 (BioTek) with four washes (80 μL) of assay buffer then aspirated to 20 μL. Next, 20 μL of 16 μM Fluo-4/acetoxymethyl ester (Invitrogen, Carlsbad, Calif.) prepared as a 2.3 mM stock in DMSO and mixed in a 1:1 ratio with 10% (w/v) Pluronic F-127 and diluted in assay buffer was added to the wells and the cell plates were incubated for […] at 37° C. and 5% CO2. Dye was removed by washing with the ELX 405 (four 80 μL washes of assay buffer) then aspirated to 20 μL. Compound master plates were formatted in an 11 point CRC format (1:3 dilutions) in 100% DMSO with a starting concentration of 10 mM using the BRAVO liquid handler (Agilent). Test compound CRCs were then transferred to daughter plates (240 nL) using the Echo acoustic plate reformatter (Labcyte, Sunnyvale, Calif.) and then diluted into assay buffer (40 μL) to a 2× stock using a Thermo Fisher Combi (Thermo Fisher Scientific, Waltham, Mass.).
Calcium flux was measured using the Functional Drug Screening System (FDSS) 6000 (Hamamatsu Corporation, Tokyo, Japan) as an increase in the fluorescent static ratio. Compounds were applied to cells (20 μL, 2×) using the automated system of the FDSS 6000 at 4 s into the 300 s protocol and the data were collected at 1 Hz. At 144 s into the 300 s protocol, 10 μL of an EC20 concentration of the muscarinic receptor agonist acetylcholine was added (5×), followed by the addition of 12 μL an EC80 concentration of acetylcholine at the 230 s time point (5×). Agonist activity was analyzed as a concentration-dependent increase in calcium mobilization upon compound addition. Positive allosteric modulator activity was analyzed as a concentration-dependent increase in the EC20 acetylcholine response. Antagonist activity was analyzed as a concentration-dependent decrease in the EC80 acetylcholine response. Concentration-response curves were generated using a four-parameter logistical equation in XLfit™ curve fitting software (IDBS, Bridgewater, N.J.) for Excel (Microsoft, Redmond, Wash.) or Prism (GraphPad Software, Inc., San Diego, Calif.). […]

SMILES: CCCCCCOc1nsnc1C1=CCCN(C)C1 [xanomeline]
- psychotic behavioral symptoms such as delusions, suspiciousness, vocal outbursts, and hallucinations [1]: reduce psychotic behavioral symptoms
- treatment induced side effects [1]: gastrointestinal effects
- catalepsy ([2]; animal models): without causing catalepsy
- activity in animal models ([2]; compared with known antipsychotic drugs): active in animal models with similar profiles to known antipsychotic drugs

SMILES: Nc1c2c(nc3ccccc13)CCCC2 [tacrine]
- hepatotoxicity with elevated liver transaminases observed in patients [3]: about 30 % of patients

- Emax at 30 µM ([4]; %ACh maximum at 30 μM): 51%
- EC50 ([4]; rM4-transfected CHO-K1 cells, positive allosteric modulation of EC20 ACh response, read-out: EC50): 1400 nM
SMILES: Cc1nnc2sc3c(NC4CNC4)nn(C)c3c2c1C [Compound 16, N-(azetidin-3-yl)-1,7,8-trimethyl-1H-pyrazolo[3′,4′:4,5]thieno[2,3-c]pyridazin-3-amine]
